Laboratory results taken from patent publication US20160038468A1 (priority 2013, published 2016).
Read-outs that look alike come from different tables or passages of the source.

Assays:
Format in all cases: cell-based
Gardnerella vaginalis = assay: Agar dilution MIC (CLSI), Gardnerella vaginalis vaginal isolates; conditions: for Number of strains with indicated MIC: 100 samples
Atopobium vaginae = assay: Agar dilution MIC (CLSI), Atopobium vaginae vaginal isolates; conditions: for Number of strains with indicated MIC: 62 samples
Mobiluncus all species = assay: Agar dilution MIC (CLSI), Mobiluncus all species; conditions: # tested 40
M. curtisii = assay: Agar dilution MIC (CLSI), M. curtisii vaginal isolates; conditions: for Number of strains with indicated MIC: 14 samples; for MIC: read-out: Minimal Inhibitory Concentration (MIC)
Prevotella amnii = assay: Agar dilution MIC (CLSI), Prevotella amnii vaginal isolates; conditions: for Number of strains with indicated MIC: 33 samples; for MIC: read-out: Minimal Inhibitory Concentration (MIC)
Prevotella bivia = assay: Agar dilution MIC (CLSI), Prevotella bivia vaginal isolates; conditions: for Number of strains with indicated MIC: 34 samples; for MIC: read-out: Minimal Inhibitory Concentration (MIC)
[1] = Gardnerella vaginalis, # tested 107
[2] = Fannyhessea vaginae, # tested 62

CCC[C@@H]1C[C@@H](C(=O)N[C@@H]([C@H]2O[C@H](SC)[C@H](O)[C@@H](O)[C@H]2O)[C@H](C)Cl)N(C)C1 [Clindamycin]
2 (5) μg/ml: Resistant (Mobiluncus all species; number (%) of isolates, resistance: rifaximin >32, metronidazole >32, clindamycin >8 μg/ml)
25: Number of strains with indicated MIC (Gardnerella vaginalis; MIC 0.06 μg/ml) | Number of strains with indicated MIC (Prevotella bivia; MIC >[…])
0.03 to 128 µg/mL: MIC Range (Prevotella amnii; # tested 33)
11: Number of strains with indicated MIC (Gardnerella vaginalis; MIC 0.03 μg/ml)
64 µg/mL: MIC (M. curtisii; individual isolates recovered from the vagina 2009-2012, one line per isolate (id in c0/c1 of the row))
0.015 to 0.5 µg/mL: MIC Range (Gardnerella vaginalis; # tested 107)
0.03 µg/mL: MIC (Prevotella amnii; Prevotella amnii, isolate 601203 4) | MIC (Prevotella amnii; Prevotella amnii, isolate 601256 11) | MIC (Prevotella amnii; Prevotella amnii, isolate 601258 25) | MIC (Prevotella amnii; Prevotella amnii, isolate 601261 E) | MIC (Prevotella amnii; Prevotella amnii, isolate 601266 20) | MIC (Prevotella amnii; Prevotella amnii, isolate 601278 10) | MIC (Prevotella amnii; Prevotella amnii, isolate 601287 HH) | MIC (Prevotella amnii; Prevotella amnii, isolate 601291 41) | MIC (Prevotella amnii; Prevotella amnii, isolate 601293 29) | MIC (Prevotella amnii; Prevotella amnii, isolate 601305 A) | MIC (Prevotella amnii; Prevotella amnii, isolate 601311 K) | MIC (Prevotella amnii; Prevotella amnii, isolate 601314 19) | MIC (Prevotella amnii; Prevotella amnii, isolate 601318 G) | MIC (Prevotella amnii; Prevotella amnii, isolate 601336 33) | MIC (Prevotella amnii; Prevotella amnii, isolate 601341 H) | MIC (Prevotella amnii; Prevotella amnii, isolate 601350 A) | MIC (Prevotella amnii; Prevotella amnii, isolate 601365 6) | MIC (Prevotella amnii; Prevotella amnii, isolate 601368 24) | MIC (Prevotella amnii; Prevotella amnii, isolate 601369 13) | MIC (Prevotella amnii; Prevotella amnii, isolate 601375 L) | MIC (Prevotella amnii; Prevotella amnii, isolate 601377 9) | MIC (Prevotella amnii; Prevotella amnii, isolate 601379 24) | MIC (Prevotella amnii; Prevotella amnii, isolate 601388 G) | MIC (Prevotella amnii; Prevotella amnii, isolate 601399 10) | MIC (Prevotella amnii; Prevotella amnii, isolate 601405 A) | MIC (Prevotella amnii; Prevotella amnii, isolate 601411 L) | MIC (Prevotella amnii; Prevotella amnii, isolate 601413 10) | MIC (Prevotella amnii; Prevotella amnii, isolate 601418 27) | MIC (Prevotella amnii; Prevotella amnii, isolate 601426 A) | MIC (Prevotella amnii; Prevotella amnii, isolate 601430 14) | MIC (Prevotella amnii; Prevotella amnii, isolate 601434 13) | MIC (Prevotella amnii; Prevotella amnii, isolate 601458 13) | MIC50 (Prevotella amnii; Prevotella amnii, # tested 33) | MIC90 (Prevotella amnii; Prevotella amnii, # tested 33) | MIC (Prevotella bivia; Prevotella bivia, isolate 601203 5) | MIC (Prevotella bivia; Prevotella bivia, isolate 601212 9) | MIC (Prevotella bivia; Prevotella bivia, isolate 601293 22) | MIC (Prevotella bivia; Prevotella bivia, isolate 601367 M) | MIC (Prevotella bivia; Prevotella bivia, isolate 601388 T) | MIC (Prevotella bivia; Prevotella bivia, isolate 601389 J) | MIC (Prevotella bivia; Prevotella bivia, isolate 601409 V) | MIC (Prevotella bivia; Prevotella bivia, isolate 601410 12)
0.125 µg/mL: MIC50 (Gardnerella vaginalis; [1]) | MIC50 (Mobiluncus all species)
1: Number of strains with indicated MIC (Gardnerella vaginalis; MIC 0.015 μg/ml) | Number of strains with indicated MIC (Gardnerella vaginalis; MIC […] μg/ml) | Number of strains with indicated MIC (Atopobium vaginae; MIC 8 μg/ml) | Number of strains with indicated MIC (Atopobium vaginae; MIC 16 μg/ml) | Number of strains with indicated MIC (Atopobium vaginae; MIC >[…]) | Number of strains with indicated MIC (Atopobium vaginae; MIC […] μg/ml) | Number of strains with indicated MIC (M. curtisii; MIC 32 μg/ml) | Number of strains with indicated MIC (M. curtisii; MIC >[…]) | Number of strains with indicated MIC (Prevotella amnii; MIC […]) | Number of strains with indicated MIC (Prevotella bivia; MIC 0.06 μg/ml)
28: Number of strains with indicated MIC (Atopobium vaginae; MIC 0.03 μg/ml)
0.06 µg/mL: MIC50 (Atopobium vaginae; [2]) | MIC (Prevotella bivia; Prevotella bivia, isolate 601355 B)
128 µg/mL: MIC (Prevotella amnii; Prevotella amnii, isolate 601340 37)
10: Number of strains with indicated MIC (Atopobium vaginae; MIC 0.06 μg/ml)
32 (97) μg/ml: Susceptible (Prevotella amnii; number (%) of isolates, # tested 33)
1 (3) μg/ml: Resistant (Prevotella amnii; number (%) of isolates, # tested 33, resistance: rifaximin >32, metronidazole >32, clindamycin >8 μg/ml)
3: Number of strains with indicated MIC (M. curtisii; MIC 0.06 μg/ml)
0.25 µg/mL: MIC90 (Gardnerella vaginalis; [1]) | MIC90 (Atopobium vaginae; [2]) | MIC90 (Mobiluncus all species)
32: Number of strains with indicated MIC (Prevotella amnii; MIC 0.03 μg/ml)
38 (95) μg/ml: Susceptible (Mobiluncus all species; number (%) of isolates)
8: Number of strains with indicated MIC (Prevotella bivia; MIC 0.03 μg/ml)
> 128 µg/mL: MIC (Atopobium vaginae; Fannyhessea vaginae, read-out: Minimal Inhibitory Concentration (MIC)) | MIC (M. curtisii) | MIC (Prevotella bivia; Prevotella bivia) | MIC50 (Prevotella bivia; Prevotella bivia, # tested 34) | MIC90 (Prevotella bivia; Prevotella bivia, # tested 34)
